Data on 1 molecule can be found in PMC6271131, “Inhibitory Effects of Colocasia esculenta (L.) Schott Constituents on Aldose Reductase” (Molecules, 2014).

In one experiment the test system is rat erythrocyte. Kind of experiment: Galactitol accumulation in rat erythrocytes incubated with galactose. The class given is cell-based. Particulars: 30 mM galactose. Here is the method: Blood sample was collected in heparin containing polypropylene tube from 10-week-old male rats. For sugar and sugar alcohol analysis, erythrocytes from heparinized blood were separated from the plasma and buffy coat by centrifuging at 2000× g for 10 min. The cells were washed thrice with normal saline (0.9% NaCl) at 4 °C. In the final washing, the cells were centrifuged at 2000× g for 10 min to obtain a consistently packed cell preparation. The packed cells (1 mL) were then incubated in a Krebs-Ringer bicarbonate buffer (pH 7.4) containing 30 mM galactose in the presence or absence of samples at 37 °C in 5% CO2 for 3 h. The erythrocytes were washed with cold saline by centrifuging at 2000× g for 10 min, precipitated by adding 6% of cold perchloric acid (3 mL), and centrifuged again at 2000× g for 10 min. The supernatant was neutralized with 2.5 M K2CO3 at 4 °C and used for galactitol determination. HPLC analysis for sugar and sugar alcohol in blood was performed with this supernatant of red blood cell homogenate after being benzoylated.

A short description of experiment [1]: ABTS^+ radical assay (antioxidant). Particulars: Table 5. As to the method:
The method of Re et al., [39] was used with slight modifications. ABTS diammonium salt (2 mM) and potassium persulfate (3.5 mM) were mixed, diluted in distilled water and kept in the dark at room temperature for 24 h before use. After addition of ABTS^+ solution to 10 µL of antioxidant compounds were recorded at after 10 min reaction. […] Trolox was used as positive control.

Experiment [2] addresses T1, rat lens aldose reductase (rAR) (Rattus norvegicus, UniProt P07943).
T1 construct: The rat lens homogenate was prepared according to the method of Hayman and Kinoshita with some modifications; from tissue; host or cells: lenses of Sprague-Dawley rats (homogenate supernatant)
Kind of experiment: Rat lens aldose reductase (rAR) inhibition, DL-glyceraldehyde substrate, NADPH decrease at 340 nm. It is filed as biochemical. As to the method:
The rat lens homogenate was prepared according to the method of Hayman and Kinoshita with some modifications. Non-cataractous transparent lenses were pooled and homogenate was prepared in 0.1 M phosphate buffer saline (pH 6.2). After centrifugation at 10,000 rpm for 20 min in a refrigerated centrifuge, the supernatant, which was then collected and as the rAR, all procedures were carried out at 4 °C.
Each 1.0 mL cuvette contained equal units of the enzyme, 0.10 M sodium phosphate buffer (pH 6.2), 0.3 mM NADPH, with or without 10 mM of the substrate and an inhibitor [10, 36].

Another experiment concerns rat lenses. The experiment can be described thus: Galactitol accumulation in cultured isolated rat lenses (ex vivo). It is filed as cell-based. Here is the method:
Lenses isolated from 10-week-old male rats were cultured for 6 days in TC-199 medium that contained 15% fetal bovine serum 100 units/mL penicillin and 0.1 mg/mL streptomycin under sterile conditions in an atmosphere of 5% CO2 and 95% air at 37 °C. Samples were dissolved in dimethyl sulfoxide. The lenses were divided into five groups and cultured in medium containing 5 mM glucose, 30 mM galactose and rosmarinic acid or caffeic acid ethylene ester. Each lens was placed in well containing 1.0 mL of medium. Galactitol was determined by HPLC after its derivatization by reaction with benzoic acid to a fluorescent compound [37].

For experiment [3], the target named is T2, recombinant human aldose reductase (rhAR) (Homo sapiens, UniProt P15121).
T2 construct: purchased Wako Pure Chemical Industries (Osaka, Japan)
The experiment can be described thus: Kinetic analysis of aldose reductase inhibition (Lineweaver-Burk plots). The class given is biochemical. As to the method: Reaction mixtures consisted of 0.1 M potassium phosphate, 0.16 mM NADPH, […] of recombinant human aldose reductase (rhAR) with varied concentrations of substrate DL-glyceraldehyde and AR inhibitor in a total volume of 200 µL. Concentrations were ranged from 0.1 to 1 mM for DL-glyceraldehyde, from 0.1 to 1 mM for active compound. Recombinant human aldose reductase activity was assayed spectrophotometrically by measuring the decrease in absorption of NADPH at 340 nm after substrate addition using a Bio Tek Power Wave XS spectrophotometer (Bio Tek Instruments, Winooski, VT, USA).

The structures appear in SMILES notation. In brackets after ≈: the same amount, converted by molar mass.

What is called IC50 is the concentration that gives 50% inhibition. High values mean a need for much substance, low ones inhibition by little substance. As usually defined, the inhibition is the relative decrease from the control value, in per cent. In general, Ki refers to the equilibrium dissociation constant of an inhibitor or competing ligand from its target. In the case of `O=c1cc(-c2ccc(O)c(O)c2)oc2cc(O)c([C@@H]3O[C@H](CO)[C@@H](O)[C@H](O)[C@H]3O)c(O)c12` [Compound 3, isoorientin], the “Rat Erythrocyte Galactitol Content” value with rat erythrocyte (5 µg/mL compound, control 86.70 ± 1.61) was 56.18 ± 1.00 µM. Further, in the experiment with rat erythrocyte (5 µg/mL), the “decrease of galactitol accumulation in rat erythrocyte” value was determined as 35.2%. Besides, the IC50 in experiment [1] was 14.6 ± 1.18 µM; in experiment [2] (IC50 (rAR), isolated constituents, Table 2 experiment), 1.92 µM. In addition, the “IC50 (ABTS^+)” value in experiment [1] was 6.53 ± 0.53 µg/mL (≈ 14.6 µM). The “Inhibition (%) of ABTS^+” value in experiment [1] (1.67 µg/mL) is reported as 17.87 ± 3.08%; in experiment [1] (3.33 µg/mL), 31.69 ± 4.94%; in experiment [1] (8.33 µg/mL), 60.92 ± 2.81%. The inhibition at 0.5 µg/mL in experiment [2] (Table 2, 0.5 µg/mL, read-out: Inhibition (%) of rAR) amounted to 37.23 ± 0.37%. Moreover, the inhibition at 1 µg/mL in experiment [2] (Table 2, 1 µg/mL, read-out: Inhibition (%) of rAR) was determined as 57.6 ± 0.58%. Further, the inhibition at 5 µg/mL in experiment [2] (Table 2, 5 µg/mL) stood at 77.73 ± 0.77%; in the experiment with rat lenses (Rattus norvegicus, 144 h, 5 µg/mL, 30 mM galactose, 6 days, read-out: inhibition of galactitol accumulation in isolated rat lenses) it was 2.7%. The “Galactitol Content µg/lens Wet Weight (g)” value in the experiment with rat lenses (5 µg/mL compound, 30 mM galactose, 6 days, control 250.47 ± 5.01) was 243.14 ± 4.71 µg/lens Wet Weight (g). For the same molecule, the “effect on polyol accumulation in rat lenses” value with rat lenses (conclusion statement) was “prevented the accumulation of sorbitol in rat lenses”. In experiment [3] (Lineweaver-Burk plots, Km unchanged, Vmax decreased), the type of inhibition entry was “noncompetitive inhibitors”. The Ki in experiment [3] (from secondary Lineweaver-Burk plots, DL-glyceraldehyde 0.1-1 mM, read-out: inhibitory constant (Ki)) was 5.88 µM.
